target: T1, KRAS G12C 1-169, his-tagged protein, GDP-loaded (Homo sapiens, UniProt P01116, G12C); experiment: Biochemical assay: covalent binding (modification %) to KRAS G12C by mass spectrometry; settings: 2 hour incubation period, 8 μM compound (compounds 21-92)
T1 construct: KRAS G12C 1-169, his-tagged protein, GDP-loaded
Experimental: Test compounds were prepared as 10 mM stock solutions in DMSO (Fisher cat# BP-231-100). KRAS G12C 1-169, his-tagged protein, GDP-loaded was diluted to 2 μM or 0.5 μM in buffer (20 mM Hepes, 150 mM NaCl, 1 mM MgCl2). Compounds were tested for activity as follows:
Compounds were diluted to 50× final test concentration in DMSO in 96-well storage plates. Compound stock solutions were vortexed before use and observed carefully for any sign of precipitation. Dilutions were as follow: • For 100 μM final compound concentration, compounds were diluted to 5000 μM (5 μL 10 mM compound stock+5 μL DMSO and mixed well by pipetting. • For 30 μM final compound concentration, compounds were diluted to 1500 μM (3 μL 10 mM compound stock+17 μL DMSO) and mixed well by pipetting. • For 10 μM final compound concentration, compounds were diluted to 500 μM (2 μL 10 mM compound stock+38 μL DMSO) and mixed well by pipetting. 49 μL of the stock protein solution was added to each well of a 96-well PCR plate (Fisher cat#1423027). 1 μl of the diluted 50× compounds were added to appropriate wells in the PCR plate using 12-channel pipettor. Reactions were mixed carefully and thoroughly by pipetting up/down with a 200 μL multi-channel pipettor. The plate was sealed well with aluminum plate seal, and stored in drawer at room temperature for 10 minutes, 30 minutes, 2 hours or 24 hours. 5 μL of 2% formic acid (Fisher cat# A117) in de-ionized H2O was then added to each well followed by mixing with a pipette. The plate was then resealed with aluminum seal and stored on dry ice until analyzed as described below.
The above described assays were analyzed by mass spectrometry according to one of the following two procedures:
The MS instrument is set to positive polarity, 2 GHz resolution, and low mass (1700) mode and allowed to equilibrate for 30 minutes. The instrument is then calibrated, switched to acquisition mode and the appropriate method loaded.
After another 30 minute equilibration time, a blank batch (i.e., buffer) is run to ensure equipment is operating properly. The samples are thawed at 37° C. for 10 minutes, briefly centrifuged, and transfer to the bench top. Wells A1 and H12 are spiked with 1 μL 500 μM internal standard peptide, and the plates centrifuged at 2000×g for 5 minutes. The method is then run and masses of each individual well recorded.
The masses (for which integration data is desired) for each well are pasted into the platemap and exported from the analysis. Masses for the internal standards are exported as well. The data at 50 ppm is extracted for the +19 charge state, and identity of well A1 is assigned using the internal standard spike and integrated. Peak data is exported as a TOF list and the above steps are repeated individually, for the +20, 21, 22, 23, 24, and 25 charge states.
The masses and peak intensities of KRAS G12C protein species were measured using a Dionex RSLCnano system (Thermo Scientific) connected to a Q Exactive Plus mass spectrometer (Thermo Scientific).
[…] of sample was each loaded onto a Aeris™ 3.6 μm WIDEPORE C4 200 Å, LC Column 50×2.1 mm column maintained at 40° C. at a flow rate of 600 μL/min with 20% Solvent A (0.1% formic acid in H2O) and 80% Solvent B (0.1% formic acid in acetonitrile). The liquid chromatography conditions were 20% solvent B for 1 minute, 20% to 60% solvent B for 1.5 minutes, 60% to 90% solvent for 0.5 minute, 90% solvent B for 0.2 minute, 90% to 20% solvent B for 0.2 minute, and then equilibrated for 1.6 minute before the following sample injection. The flow rate was maintained at 600 μL/min throughout the sample analysis.
The mass spectrometer was operated in profile mode at a resolution of 17500, 5 microscans, using 50 msec max injection time and an AGC target of 1×10^6, and a full mass range from 800-1850 m/z was recorded. The HCD trapping gas was optimized for maximum sensitivity for intact proteins. […]

**Q.** Which Binding % does the source give for C=CC(=O)N1CC(N2Cc3cc(F)c(-c4cc(O)ccc4Cl)cc3C2=O)C1 [Compound 21, 2-(1-acryloylazetidin-3-yl)-6-(2-chloro-5-hydroxyphenyl)-5-fluoroisoindolin-1-one] here?
**A.** The Binding % was “++ (++ indicates binding activity from 10 to 50%)”.

**Q.** With C=CC(=O)NCCN1Cc2ccc(-c3c(C)ccc4[nH]ncc34)cc2C1=O [Compound 22, N-(2-(6-(5-methyl-1H-indazol-4-yl)-1-oxoisoindolin-2-yl)ethyl)acrylamide] as the molecule, how does the Binding % read?
**A.** The Binding % was “+ (+ indicates binding activity up to 10%)”.

**Q.** How did the Binding % turn out when C=CC(=O)N1CC(N2Cc3c(C(N)=O)cc(-c4cc(O)cc5ccccc45)cc3C2=O)C1 [Compound 23, 2-(1-acryloylazetidin-3-yl)-6-(3-hydroxynaphthalen-1-yl)-1-oxoisoindoline-4-carboxamide] was run?
**A.** The Binding % was “+++ (+++ indicates binding activity greater than 50%)”.

**Q.** Which Binding % does the source give for C=CC(=O)N1CC(N2Cc3c(C#N)cc(-c4cc(O)cc5ccccc45)cc3C2=O)C1 [Compound 24, 2-(1-acryloylazetidin-3-yl)-6-(3-hydroxynaphthalen-1-yl)-1-oxoisoindoline-4-carbonitrile] here?
**A.** Its Binding % is “+++ (+++ indicates binding activity greater than 50%)”.

**Q.** How did the Binding % turn out when C=CC(=O)N1CC(N2C(=O)c3ccc(-c4cc(O)cc5ccccc45)cc3C2=O)C1 [Compound 25, 2-(1-acryloylazetidin-3-yl)-5-(3-hydroxynaphthalen-1-yl)isoindoline-1,3-dione] was run?
**A.** The Binding % was “++ (++ indicates binding activity from 10 to 50%)”.

**Q.** How did the Binding % turn out when C=CC(=O)N1CC(N2Cc3c(F)cc(-c4cc(O)ccc4Cl)cc3C2=O)C1 [Compound 26, 2-(1-acryloylazetidin-3-yl)-6-(2-chloro-5-hydroxyphenyl)-4-fluoroisoindolin-1-one] was run?
**A.** Its Binding % is “++ (++ indicates binding activity from 10 to 50%)”.

**Q.** C=CC(=O)N1CC(N2Cc3c(F)cc(-c4cc(O)cc5ccccc45)cc3C2=O)C1 [Compound 27, 2-(1-acryloylazetidin-3-yl)-4-fluoro-6-(3-hydroxynaphthalen-1-yl)isoindolin-1-one] was tested. Which Binding % did it give?
**A.** The Binding % was “+++ (+++ indicates binding activity greater than 50%)”.

**Q.** With C=CC(=O)N1CC(N2Cc3c(cc(-c4cc(O)cc5ccccc45)cc3C(F)(F)F)C2=O)C1 [Compound 28, 2-(1-acryloylazetidin-3-yl)-6-(3-hydroxynaphthalen-1-yl)-4-(trifluoromethyl)isoindolin-1-one] as the molecule, how does the Binding % read?
**A.** The Binding % was “++ (++ indicates binding activity from 10 to 50%)”.

**Q.** With C=CC(=O)N1CC(N2Cc3cc(C)c(-c4cc(O)ccc4Cl)cc3C2=O)C1 [Compound 29, 2-(1-acryloylazetidin-3-yl)-6-(2-chloro-5-hydroxyphenyl)-5-methylisoindolin-1-one] as the molecule, how does the Binding % read?
**A.** The Binding % was “++ (++ indicates binding activity from 10 to 50%)”.

**Q.** For C=CC(=O)N1CC(N2Cc3cc(C)c(-c4cc(O)cc5ccccc45)cc3C2=O)C1 [Compound 30, 2-(1-acryloylazetidin-3-yl)-6-(3-hydroxynaphthalen-1-yl)-5-methylisoindolin-1-one], which Binding % is on record?
**A.** Its Binding % is “+++ (+++ indicates binding activity greater than 50%)”.

**Q.** For C=CC(=O)N1CC(N2CCc3ccc(-c4cc(O)cc5ccccc45)cc3CC2)C1 [Compound 31, 1-(3-(7-(3-hydroxynaphthalen-1-yl)-4,5-dihydro-1H-benzo[d]azepin-3(2H)-yl)azetidin-1-yl)prop-2-en-1-one], which Binding % is on record?
**A.** The Binding % was “+ (+ indicates binding activity up to 10%)”.

**Q.** With C=CC(=O)N1CC(N2C(=O)c3ccc(-c4c(C)ccc5[nH]ncc45)cc3C2=O)C1 [Compound 32, 2-(1-acryloylazetidin-3-yl)-5-(5-methyl-1H-indazol-4-yl)isoindoline-1,3-dione] as the molecule, how does the Binding % read?
**A.** Its Binding % is “+ (+ indicates binding activity up to 10%)”.

**Q.** With C=CC(=O)N1CC(N2Cc3ccc(-c4cc(O)cc(F)c4)cc3C2=O)C1 [Compound 33, 2-(1-acryloylazetidin-3-yl)-6-(3-fluoro-5-hydroxyphenyl)isoindolin-1-one] as the molecule, how does the Binding % read?
**A.** Its Binding % is “+ (+ indicates binding activity up to 10%)”.

**Q.** How did the Binding % turn out when C=CC(=O)N1CC(N2Cc3sc(-c4cc(O)cc5ccccc45)cc3C2=O)C1 [Compound 34, 5-(1-acryloylazetidin-3-yl)-2-(3-hydroxynaphthalen-1-yl)-5,6-dihydro-4H-thieno[2,3-c]pyrrol-4-one] was run?
**A.** The Binding % was “+++ (+++ indicates binding activity greater than 50%)”.

**Q.** Which Binding % does the source give for C=CC(=O)N1CC(N2CCc3ccc(-c4cc(O)cc5ccccc45)cc3C2=O)C1 [Compound 35, 2-(1-acryloylazetidin-3-yl)-7-(3-hydroxynaphthalen-1-yl)-3,4-dihydroisoquinolin-1(2H)-one] here?
**A.** Its Binding % is “+++ (+++ indicates binding activity greater than 50%)”.

**Q.** For C=CC(=O)N1CC(N2CCc3ccc(-c4c(C)ccc5[nH]ncc45)cc3C2=O)C1 [Compound 36, 2-(1-acryloylazetidin-3-yl)-7-(5-methyl-1H-indazol-4-yl)-3,4-dihydroisoquinolin-1(2H)-one], which Binding % is on record?
**A.** The Binding % was “+ (+ indicates binding activity up to 10%)”.

**Q.** For C=CC(=O)N1CC(N2CCc3ccc(-c4c(C)ccc5[nH]ncc45)cc3CC2)C1 [Compound 37, 1-(3-(7-(5-methyl-1H-indazol-4-yl)-4,5-dihydro-1H-benzo[d]azepin-3(2H)-yl)azetidin-1-yl)prop-2-en-1-one], which Binding % is on record?
**A.** Its Binding % is “+ (+ indicates binding activity up to 10%)”.

**Q.** For C=CC(=O)N1CC(N2Cc3ccc(-c4c(C)ccc5[nH]ncc45)cc3CC2=O)C1 [Compound 38, 2-(1-acryloylazetidin-3-yl)-6-(5-methyl-1H-indazol-4-yl)-1,2-dihydroisoquinolin-3(4H)-one], which Binding % is on record?
**A.** The Binding % was “++ (++ indicates binding activity from 10 to 50%)”.

**Q.** With C=CC(=O)N1CC(N2Cc3ccc(-c4c(C)ccc5cn[nH]c45)cc3CC2=O)C1 [Compound 39, 2-(1-acryloylazetidin-3-yl)-6-(6-methyl-1H-indazol-7-yl)-1,2-dihydroisoquinolin-3(4H)-one] as the molecule, how does the Binding % read?
**A.** Its Binding % is “++ (++ indicates binding activity from 10 to 50%)”.

same assay, conditions: 2 hour incubation period, 10 μM compound (compounds 1-20)

**Q.** With C=CC(=O)N1CC(N2Cc3c(C)cc(-c4cc(O)ccc4Cl)cc3C2=O)C1 [Compound 15, 2-(1-acryloylazetidin-3-yl)-6-(2-chloro-5-hydroxyphenyl)-4-methylisoindolin-1-one] as the molecule, how does the Binding % read?
**A.** The Binding % was “++ (++ indicates binding activity from 10 to 50%)”.

**Q.** Which Binding % does the source give for C=CC(=O)N1CC(N2Cc3ccc(-c4c[nH]c5ccccc45)cc3C2=O)C1 [Compound 16, 2-(1-acryloylazetidin-3-yl)-6-(1H-indol-3-yl)isoindolin-1-one] here?
**A.** The Binding % was “++ (++ indicates binding activity from 10 to 50%)”.

**Q.** Which Binding % does the source give for C=CC(=O)N1CC(N2Cc3c(cc(-c4cc(O)ccc4Cl)cc3C(F)(F)F)C2=O)C1 [Compound 17, 2-(1-acryloylazetidin-3-yl)-6-(2-chloro-5-hydroxyphenyl)-4-(trifluoromethyl)isoindolin-1-one] here?
**A.** The Binding % was “++ (++ indicates binding activity from 10 to 50%)”.

**Q.** How did the Binding % turn out when C=CC(=O)NCCN1Cc2ccc(-c3cc(O)cc4ccccc34)cc2C1=O [Compound 18, N-(2-(6-(3-hydroxynaphthalen-1-yl)-1-oxoisoindolin-2-yl)ethyl)acrylamide] was run?
**A.** Its Binding % is “+ (+ indicates binding activity up to 10%)”.

**Q.** C=CC(=O)N1CC(N2Cc3cc(F)c(-c4cc(O)cc5ccccc45)cc3C2=O)C1 [Compound 19, 2-(1-acryloylazetidin-3-yl)-5-fluoro-6-(3-hydroxynaphthalen-1-yl)isoindolin-1-one] was tested. Which Binding % did it give?
**A.** Its Binding % is “+++ (+++ indicates binding activity greater than 50%)”.

**Q.** With C=CC(=O)N1CC(N2Cc3ccc(Nc4ccccc4)cc3C2=O)C1 [Compound 20, 2-(1-acryloylazetidin-3-yl)-6-(phenylamino)isoindolin-1-one] as the molecule, how does the Binding % read?
**A.** The Binding % was “+ (+ indicates binding activity up to 10%)”.

Reference: US10377743B2, “Inhibitors of RAS and methods of use thereof” (Araxes Pharma LLC, priority 2016, dated 2019)
